Assay results published in patent publication US11485776B2, “Antibodies against infectious diseases” (priority 2015, dated 2022).

Key:
Type in all cases: cell-based
C. albicans = assay: MIC test strips, clinical C. albicans
Experimental: (§1) C. albicans (SC 5314), C. kruesi (clinical isolate), C. tropicalis (BCRC 20520), C. parapsilosis (BCRC 20515) and C. glabrate (BCRC 20586) were kindly provided by Dr. Ching-Hua Su from Taipei Medical University, Taipei, Taiwan. […] Candida species were cultured in YPD medium and their identities were confirmed by CHROMagar Candida plate (CHROMagar, Paris, France).

C. tropicalis = assay: MIC test strips, clinical C. tropicalis
Experimental: as §1

C. glabrate = assay: MIC test strips, clinical C. glabrate
Experimental: as §1

C. parapsilosis = assay: MIC test strips, clinical C. parapsilosis
Experimental: as §1

[1] = specimen CT11-52, C. tropicalis
[2] = specimen CT12-54, C. tropicalis
[3] = specimen CP6-20, C. parapsilosis
[4] = specimen CP7-17, C. parapsilosis
[5] = specimen CP8-48, C. parapsilosis

OC(Cn1cncn1)(Cn1cncn1)c1ccc(F)cc1F [fluconazole]
2 µg/mL: MIC (C. albicans; specimen CA7-3, C. albicans) | MIC (C. albicans; specimen CA10-50, C. albicans)
1 µg/mL: MIC (C. albicans; specimen CA7-30, C. albicans) | MIC (C. albicans; specimen CA10-65, C. albicans)
R: Interpretation (C. albicans; specimen CA6-17, C. albicans) | Interpretation (C. albicans; specimen CA7-26, C. albicans) | Interpretation (C. tropicalis; specimen CT6-29, C. tropicalis) | Interpretation (C. tropicalis; specimen CT6-50, C. tropicalis) | Interpretation (C. tropicalis; [1]) | Interpretation (C. tropicalis; [2]) | Interpretation (C. glabrate; specimen CG5-8, C. glabrate) | Interpretation (C. glabrate; specimen CG8-11, C. glabrate) | Interpretation (C. parapsilosis; [3]) | Interpretation (C. parapsilosis; specimen CP8-20, C. parapsilosis) | Interpretation (C. parapsilosis; specimen CP12-37, C. parapsilosis)
8 µg/mL: MIC (C. albicans; specimen CA7-26, C. albicans) | MIC (C. tropicalis; specimen CT6-50, C. tropicalis) | MIC (C. tropicalis; [2]) | MIC (C. parapsilosis; [4])
4 µg/mL: MIC (C. parapsilosis; [5])
16 µg/mL: MIC (C. albicans; specimen CA6-17, C. albicans, read at 80% inhibition) | MIC (C. glabrate; specimen CG5-66, C. glabrate) | MIC (C. parapsilosis; [3])
S: Interpretation (C. albicans; specimen CA7-3, C. albicans) | Interpretation (C. albicans; specimen CA7-30, C. albicans) | Interpretation (C. albicans; specimen CA10-50, C. albicans) | Interpretation (C. albicans; specimen CA10-65, C. albicans) | Interpretation (C. glabrate; specimen CG5-66, C. glabrate) | Interpretation (C. glabrate; specimen CG7-37, C. glabrate) | Interpretation (C. parapsilosis; [4]) | Interpretation (C. parapsilosis; [5])
32 µg/ml: MIC (C. tropicalis; specimen CT6-29, C. tropicalis) | MIC (C. tropicalis; [1]) | MIC (C. glabrate; specimen CG7-37, C. glabrate)
64 µg/mL: MIC (C. glabrate; specimen CG5-8, C. glabrate) | MIC (C. glabrate; specimen CG8-11, C. glabrate)
